# Results: PubChem BioAssay AID256 (DTP/NCI, 2004)
# Where “and” joins values, the source holds several entries; their conditions need not be identical. Equal values may be shown once. Inconclusive results and toxic doses are left out.
# Tested on: CD2F1 mice, L1210 leukemia ip, survival T/C
# Test: NCI In Vivo Anticancer Drug Screen. Data for tumor model L1210 Leukemia (intraperitoneal) in CD2F1 (CDF1) mice
# Conditions: higher = longer survival
# Summary of the method: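 Implant tumor; dose compound or vehicle; measure endpoint in both groups; report treated divided by control.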
# [1] = endpoint: mean survival time, dose: 100.0 mg/kg/injection, schedule: Q04DX003 (ip), vehicle: saline with Tween-80
# [2] = endpoint: mean survival time, dose: 200.0 mg/kg/injection, schedule: Q04DX003 (ip), vehicle: saline with Tween-80
# [3] = endpoint: mean survival time, dose: 400.0 mg/kg/injection, schedule: Q04DX003 (ip), vehicle: saline with Tween-80
# [4] = endpoint: mean survival time, dose: 50.0 mg/kg/injection, schedule: Q01DX009 (ip), vehicle: saline with Tween-80
# [5] = endpoint: mean survival time, dose: 100.0 mg/kg/injection, schedule: Q01DX009 (ip), vehicle: saline with Tween-80
# [6] = endpoint: mean survival time, dose: 50.0 mg/kg/injection, schedule: Q04DX003 (ip), vehicle: saline
# [7] = endpoint: mean survival time, dose: 25.0 mg/kg/injection, schedule: Q01DX009 (ip), vehicle: saline with Tween-80
# [8] = endpoint: mean survival time, dose: 100.0 mg/kg/injection, schedule: Q01DX001 (ip), vehicle: saline
# [9] = endpoint: mean survival time, dose: 200.0 mg/kg/injection, schedule: Q01DX001 (ip), vehicle: saline
# [10] = endpoint: mean survival time, dose: 400.0 mg/kg/injection, schedule: Q01DX001 (ip), vehicle: saline
# [11] = endpoint: mean survival time, dose: 100.0 mg/kg/injection, schedule: Q01DX001 (ip), vehicle: saline with Tween-80
# [12] = endpoint: mean survival time, dose: 200.0 mg/kg/injection, schedule: Q01DX001 (ip), vehicle: saline with Tween-80
# [13] = endpoint: mean survival time, dose: 400.0 mg/kg/injection, schedule: Q01DX001 (ip), vehicle: saline with Tween-80
# [14] = endpoint: mean survival time, dose: 12.5 mg/kg/injection, schedule: Q01DX009 (ip), vehicle: saline with Tween-80
compound,measurement,setting,value
CN(C)C1c2ccccc2-c2ccc([N+](=O)[O-])cc21 (centres undefined),T/C,"endpoint: mean survival time, dose: 50.0 mg/kg/injection, schedule: Q01DX001 (ip), vehicle: carboxymethylcellulose (CMC)",107 % of control
same,T/C,"endpoint: mean survival time, dose: 100.0 mg/kg/injection, schedule: Q01DX001 (ip), vehicle: carboxymethylcellulose (CMC)",101 % of control
same,T/C,"endpoint: mean survival time, dose: 200.0 mg/kg/injection, schedule: Q01DX001 (ip), vehicle: carboxymethylcellulose (CMC)",101 % of control
same,T/C,"endpoint: mean survival time, dose: 400.0 mg/kg/injection, schedule: Q01DX001 (ip), vehicle: carboxymethylcellulose (CMC)",101 % of control
COc1ccc(S(=O)(=O)F)cc1NC(=O)COc1cccc(Cl)c1,T/C,[1],96 % of control
same,T/C,[2],97 % of control
same,T/C,[3],103 % of control
C/C=C\c1ccc(OCCOC(=O)Nc2ccc(Cl)cc2OC)c(OC)c1,T/C,[4],89 % of control
same,T/C,[5],89 % of control
same,T/C,"endpoint: mean survival time, dose: 200.0 mg/kg/injection, schedule: Q01DX009 (ip), vehicle: saline with Tween-80",93 % of control
CC(=O)C(C#N)c1c(C)cc(C)cc1C (centres undefined),T/C,"endpoint: mean survival time, dose: 37.5 mg/kg/injection, schedule: Q01DX009 (ip), vehicle: saline",96 % of control
same,T/C,"endpoint: mean survival time, dose: 75.0 mg/kg/injection, schedule: Q01DX009 (ip), vehicle: saline",98 % of control
same,T/C,"endpoint: mean survival time, dose: 150.0 mg/kg/injection, schedule: Q01DX009 (ip), vehicle: saline",96 % of control
CC(C)(C)C1=CC(C(C)(C)C)CCC1=O (centres undefined),T/C,"endpoint: mean survival time, dose: 100.0 mg/kg/injection, schedule: Q01DX009 (ip), vehicle: acetone",94 % of control
same,T/C,"endpoint: mean survival time, dose: 200.0 mg/kg/injection, schedule: Q01DX009 (ip), vehicle: acetone",94 % of control
CC(=O)C(Cl)C(C)=O.CC(=O)C(Cl)C(C)=O.CO.CO.[Ni],T/C,[6],108 % of control
COc1cc(OC)c(OC)cc1Br,T/C,"endpoint: mean survival time, dose: 100.0 mg/kg/injection, schedule: Q01DX009 (ip), vehicle: saline sonified",101 % of control
same,T/C,[1],102 % of control
same,T/C,"endpoint: mean survival time, dose: 200.0 mg/kg/injection, schedule: Q01DX009 (ip), vehicle: saline sonified",97 % of control
same,T/C,[2],102 % of control
same,T/C,"endpoint: mean survival time, dose: 400.0 mg/kg/injection, schedule: Q01DX009 (ip), vehicle: saline sonified",97 % of control
same,T/C,[3],102 % of control
COc1ccc2c(c1)C/C(=N\O)C2=O,T/C,[7],93 % of control
same,T/C,"endpoint: mean survival time, dose: 25.0 mg/kg/injection, schedule: Q04DX003 (ip), vehicle: saline with Tween-80",95 % of control
same,T/C,[4],97 % of control
same,T/C,"endpoint: mean survival time, dose: 50.0 mg/kg/injection, schedule: Q04DX003 (ip), vehicle: saline with Tween-80",93 % of control
same,T/C,[1],91 % of control
C[N+](C)(C)Cc1ncccc1OC(=O)N(c1ccccc1)c1ccccc1,T/C,[7],98 % of control
same,T/C,[4],96 % of control
same,T/C,[5],107 % of control
N#CC(NCc1ccccc1)c1ccc2c(c1)OCO2 (centres undefined),T/C,[4],98 % of control
same,T/C,[5],90 % of control
same,T/C,[1],99 % of control
same,T/C,[2],108 % of control
CCCCC(=O)c1cc(O)ccc1O,T/C,[8],107 % of control
same,T/C,[9],98 % of control
same,T/C,[10],92 % of control
Nc1cc(C(F)(F)F)ccc1[N+](=O)[O-],T/C,[1],100 % of control
same,T/C,[2],100 % of control
same,T/C,[3],104 % of control
CC(=O)Nc1ccc(Br)c(NC(C)=O)n1,T/C,[1],95 % of control
same,T/C,[2],98 % of control
same,T/C,[3],104 % of control
CC(=O)Nc1ccsc1,T/C,[8],96 % of control
same,T/C,[9],95 % of control
same,T/C,[10],95 % of control
CC(=O)OC1CC2CC1C1C=CCC21 (centres undefined),T/C,[11],97 % of control
same,T/C,[12],95 % of control
same,T/C,[13],100 % of control
COc1ccc([N+](=O)[O-])cc1CO/N=C(/CCC(=O)O)C(=O)O,T/C,[1],101 % of control
same,T/C,[2],106 % of control
same,T/C,[3],101 % of control
CCCCN1C(=O)C(=O)N(c2cc(Cl)c(OC)cc2OC)C1=O,T/C,[14],103 % of control
same,T/C,[7],88 % of control
same,T/C,[4],93 % of control and 96 % of control
O=S(=O)(Nc1cccc(NS(=O)(=O)c2ccccc2)n1)c1ccccc1,T/C,[1],92 % of control
same,T/C,[2],102 % of control
same,T/C,[3],92 % of control
CCN(CC)CCCNc1cc(OC)cc2nc3cc(Cl)ccc3nc12,T/C,"endpoint: mean survival time, dose: 12.5 mg/kg/injection, schedule: Q01DX009 (ip), vehicle: suspension in saline",98 % of control
same,T/C,"endpoint: mean survival time, dose: 25.0 mg/kg/injection, schedule: Q01DX009 (ip), vehicle: suspension in saline",100 % of control and 101 % of control
same,T/C,"endpoint: mean survival time, dose: 50.0 mg/kg/injection, schedule: Q01DX009 (ip), vehicle: suspension in saline",98 % of control and 105 % of control
same,T/C,"endpoint: mean survival time, dose: 100.0 mg/kg/injection, schedule: Q01DX009 (ip), vehicle: suspension in saline",101 % of control and 108 % of control
same,T/C,"endpoint: mean survival time, dose: 200.0 mg/kg/injection, schedule: Q01DX009 (ip), vehicle: suspension in saline",112 % of control
COc1cc2c(ccc3cc4cccc[n+]4cc32)c(Br)c1OC,T/C,[14],98 % of control
same,T/C,"endpoint: mean survival time, dose: 12.5 mg/kg/injection, schedule: Q04DX003 (ip), vehicle: saline sonified",97 % of control
same,T/C,[7],100 % of control
same,T/C,"endpoint: mean survival time, dose: 25.0 mg/kg/injection, schedule: Q04DX003 (ip), vehicle: saline sonified",97 % of control
same,T/C,[4],100 % of control
same,T/C,"endpoint: mean survival time, dose: 50.0 mg/kg/injection, schedule: Q04DX003 (ip), vehicle: saline sonified",103 % of control
CC1(C)OCCCO1,T/C,"endpoint: mean survival time, dose: 25.0 mg/kg/injection, schedule: Q04DX002 (ip), vehicle: saline",104 % of control
same,T/C,"endpoint: mean survival time, dose: 50.0 mg/kg/injection, schedule: Q04DX002 (ip), vehicle: saline",96 % of control
same,T/C,"endpoint: mean survival time, dose: 100.0 mg/kg/injection, schedule: Q04DX002 (ip), vehicle: saline",100 % of control
COc1ccc(OC)c(Cc2cnc3nc(N)nc(N)c3c2C)c1,T/C,"endpoint: median survival time, dose: 2.5 mg/kg/injection, schedule: Q01DX009 (ip), vehicle: dextrose",103 % of control
same,T/C,"endpoint: median survival time, dose: 5.0 mg/kg/injection, schedule: Q01DX009 (ip), vehicle: dextrose",101 % of control and 102 % of control
same,T/C,"endpoint: median survival time, dose: 6.25 mg/kg/injection, schedule: Q01DX009 (ip), vehicle: water",95 % of control
same,T/C,"endpoint: median survival time, dose: 10.0 mg/kg/injection, schedule: Q01DX009 (ip), vehicle: dextrose",101 % of control and 102 % of control
same,T/C,"endpoint: median survival time, dose: 12.5 mg/kg/injection, schedule: Q01DX009 (ip), vehicle: water",98 % of control
same,T/C,"endpoint: median survival time, dose: 20.0 mg/kg/injection, schedule: Q01DX009 (ip), vehicle: dextrose",106 % of control and 112 % of control
same,T/C,"endpoint: median survival time, dose: 25.0 mg/kg/injection, schedule: Q01DX009 (ip), vehicle: water",111 % of control
same,T/C,"endpoint: median survival time, dose: 50.0 mg/kg/injection, schedule: Q01DX009 (ip), vehicle: water",151 % of control
same,T/C,"endpoint: median survival time, dose: 80.0 mg/kg/injection, schedule: Q01DX009 (ip), vehicle: dextrose",103 % of control
same,T/C,"endpoint: median survival time, dose: 100.0 mg/kg/injection, schedule: Q01DX009 (ip), vehicle: water",88 % of control
OC1C2c3ccccc3C(c3c2ccc2ccccc32)C1O (centres undefined),T/C,"endpoint: median survival time, dose: 25.0 mg/kg/injection, schedule: Q04DX003 (ip), vehicle: saline with Tween-80",100 % of control
same,T/C,"endpoint: median survival time, dose: 50.0 mg/kg/injection, schedule: Q04DX003 (ip), vehicle: saline with Tween-80",100 % of control
same,T/C,"endpoint: median survival time, dose: 100.0 mg/kg/injection, schedule: Q04DX003 (ip), vehicle: saline with Tween-80",100 % of control
same,T/C,"endpoint: median survival time, dose: 200.0 mg/kg/injection, schedule: Q04DX003 (ip), vehicle: saline with Tween-80",88 % of control
O=C(O)c1cc(=O)c2ccccc2[nH]1,T/C,"endpoint: mean survival time, dose: 50.0 mg/kg/injection, schedule: Q01DX001 (ip), vehicle: saline",93 % of control
same,T/C,[8],93 % of control
same,T/C,[9],91 % of control
NC(=O)CCC(=O)NCCN1CC1,T/C,"endpoint: mean survival time, dose: 25.0 mg/kg/injection, schedule: Q04DX003 (ip), vehicle: saline",97 % of control
same,T/C,[6],97 % of control
same,T/C,[8],104 % of control
same,T/C,"endpoint: mean survival time, dose: 100.0 mg/kg/injection, schedule: Q04DX003 (ip), vehicle: saline",96 % of control
same,T/C,[9],98 % of control
same,T/C,[10],115 % of control
COc1csn[n+]1-c1ccc(C)cc1,T/C,"endpoint: mean survival time, dose: 75.0 mg/kg/injection, schedule: Q01DX001 (ip), vehicle: saline",104 % of control
[Cl][Pt]([Cl])[Cl].[NH-]C1CN2CCC1CC2 (centres undefined),T/C,"endpoint: mean survival time, dose: 2.5 mg/kg/injection, schedule: Q04DX003 (ip), vehicle: saline with Tween-80",119 % of control
same,T/C,"endpoint: mean survival time, dose: 5.0 mg/kg/injection, schedule: Q04DX003 (ip), vehicle: saline with Tween-80",122 % of control
CCCCCC(=O)COCC,T/C,[1],103 % of control
same,T/C,[2],91 % of control
same,T/C,[3],103 % of control
CC(=O)OCC(C)CCC1OC2CC3C4CCC5CC(OC(C)=O)CCC5(C)C4CCC3(C)C2C1C (centres undefined),T/C,[11],100 % of control
same,T/C,[12],101 % of control
same,T/C,[13],94 % of control
